One may read the CC50 as the concentration at which the toxic effect on the cells reaches its halfway point. One may read the IC50 as the concentration that gives 50% inhibition.

In one series the test system is Vero. As to the kind of experiment: Cytotoxicity against african green monkey Vero cells by end-point titration technique. It is filed as cell-based. The following applies: chlorocebus sabaeus.
Series [1] relates to Human alphaherpesvirus 2. As to the kind of experiment: Antiviral activity against Herpes simplex virus 2 infected in african green monkey Vero cells assessed as ratio of the viral titers in absence to presence of drug after 48 hrs by end-point titration technique. The series is classed as functional.
In series [2] the test system is Human alphaherpesvirus 2. As to the kind of experiment: Antiviral activity against Herpes simplex virus 2 infected in african green monkey Vero cells assessed as maximal nontoxic dose that showed the highest viral reduction factor after 48 hrs by end-point titration technique. The series is classed as functional.
The nature of series [3]: Cytotoxicity against african green monkey Vero cells by MTT assay. The series is classed as cell-based. The following applies: chlorocebus sabaeus.
In series [4] the test system is Human alphaherpesvirus 2. As to the kind of experiment: Antiviral activity against Herpes simplex virus 2 infected in african green monkey Vero cells assessed inhibition of virus-induced effect after 48 hrs by MTT assay. The settings on record: Human alphaherpesvirus 2, Vero. It is filed as functional, organism-based. (In general: Formazan colour is commonly taken as a measure of viable cells.)

Series [5] is described as follows: Therapeutic index, ratio of CC50 for african green monkey Vero cells to IC50 for Herpes simplex virus 2 by MTT assay. The series is classed as cell-based. The following applies: read-out: Ratio CC50/IC50.
A further series concerns CHO. As to the kind of experiment: Cytotoxicity against CHO cells after 48 hrs. The series is classed as cell-based, Cricetulus griseus. The settings on record: chinese hamster.
Series [6] can be described thus: Cytotoxicity against bovine Bon-Fib cells after 48 hrs. The following applies: cattle. The series is classed as cell-based, Bos taurus.
Another series relates to HeLa. As to the kind of experiment: Cytotoxicity against human HeLa cells after 48 hrs. It is filed as functional.
The test system of a further series is HEp-2. As to the kind of experiment: Cytotoxicity against human Hep2 cells after 48 hrs. The series is classed as functional.

Values after ≈ are worked out from the molar mass of the structure shown. Active and inactive are the calls of the source. The rule behind the calls is not given here.

In the series with Vero, `CC1(C)CCC[C@@]2(C)[C@H]1CC[C@H]1C[C@@H](O)[C@]3(C)CC[C@]12C3` returned a CC100 of 32 µg/mL. For the same compound, in the series with Human alphaherpesvirus 2 [1], the Ratio came out at 100. In addition, the Activity in the series on Human alphaherpesvirus 2 [2] amounted to 7.5 µg/mL. Besides, it took 19.5 µg/mL (≈ 67.1 µM) to reach half-maximal cytotoxicity in [3] (CC50). Besides, in the series on Human alphaherpesvirus 2 [4], inhibition was half-maximal at 16.5 µg/mL (≈ 56.8 µM) (IC50). The selectivity ratio in series [5] came to 1.25.

Consider `CC1(C)CCC[C@@]2(C)[C@H]1C[C@@H](O)[C@@H]1CC(=O)[C@]3(C)CC[C@]12C3`, for which, in the series with Vero, the CC100 came out at 60 µg/mL. Moreover, in the series on Human alphaherpesvirus 2 [1], the Ratio turned out to be 100. In the series with Human alphaherpesvirus 2 [2], the Activity is 30 µg/mL. Also, half-maximal cytotoxicity in series [3] (CC50) was put at 27.8 µg/mL (≈ 91.3 µM). Also, the half-maximal inhibitory concentration (IC50) in the series on Human alphaherpesvirus 2 [4] stood at 42.1 µg/mL (≈ 138 µM). In addition, the selectivity ratio in series [5] is 0.66.

Regarding `CC1(C)CCC[C@@]2(C)[C@H]1C[C@@H](O)C1=CC(=O)[C@]3(C)CC[C@]12C3`, the CC100 with Vero stood at 28 µg/mL; in the series with CHO, 20 µg/mL; in series [6], 10 µg/mL. The Ratio with Human alphaherpesvirus 2 [1] is 10. Further, the Activity in the series with Human alphaherpesvirus 2 [2] worked out at 14 µg/mL.

Consider `COC(=O)CC(=O)O[C@@H]1C[C@@H]2[C@@H](OC(C)=O)C[C@H]3C(C)(C)CCC[C@]3(C)[C@]23CC[C@]1(C)C3` [METHYL THYRSIFLORIN B ACETATE], for which the CC100 was found to be 30 µg/mL with Vero; 30 µg/mL with HeLa; 30 µg/mL with HEp-2; 30 µg/mL in the series on CHO; 60 µg/mL in series [6]. Besides, the Ratio with Human alphaherpesvirus 2 [1] came to 5. Besides, the Activity with Human alphaherpesvirus 2 [2] is 15 µg/mL.

`Nc1nc2c(ncn2COCCO)c(=O)[nH]1` [ACYCLOVIR] came in with a CC100 with Vero of over 600 µg/mL. In addition, the Ratio in the series on Human alphaherpesvirus 2 [1] is given as 100000. Also, the Activity with Human alphaherpesvirus 2 [2] came out at 6 µg/mL. Also, 4.21 µg/mL (≈ 18.7 µM) corresponded to half-maximal inhibition with Human alphaherpesvirus 2 [4] (IC50).

In the case of `CC(=O)O[C@H]1C[C@H]2C(C)(C)CCC[C@]2(C)[C@@]23CC[C@](C)(C2)[C@H](OC(C)=O)C[C@H]13` [THYRSIFLORIN C DIACETATE], the CC100 turned out to be 50 µg/mL in the series with Vero, 40 µg/mL in the series with CHO and 60 µg/mL in series [6]. Also, the Ratio in the series on Human alphaherpesvirus 2 [1] is recorded as 5. For the same compound, in the series on Human alphaherpesvirus 2 [2], the Activity turned out to be 10 µg/mL.

For `CC1(C)CCC[C@@]2(C)[C@H]1CC[C@@]13CC(=O)[C@]4(C)CC1[C@]32C4`, the CC100 in the series on Vero was found to be 40 µg/mL. Further, the Ratio in the series with Human alphaherpesvirus 2 [1] is 10. The Activity in the series on Human alphaherpesvirus 2 [2] came out at 20 µg/mL.

`CC1(C)CCC[C@@]2(C)[C@H]1C[C@H](O)[C@H]1CC(=O)[C@]3(C)CC[C@]12C3`: in the series with Vero, the CC100 amounted to 48 µg/mL. Moreover, the Ratio with Human alphaherpesvirus 2 [1] amounted to 5. The Activity in the series on Human alphaherpesvirus 2 [2] is 10 µg/mL.

For `CC1(C)CCCC2=C1CC[C@@]13CC[C@](C)(C[C@@]21C)C(=O)C3`, the CC100 with Vero was found to be 35 µg/mL. Moreover, in the series on Human alphaherpesvirus 2 [1], the Ratio result was “inactive”. For the same compound, the result with Human alphaherpesvirus 2 [2] was inactive.

Regarding `COC(=O)CC(=O)O[C@@H]1C[C@@H]2CC[C@H]3C(C)(C)CCC[C@]3(C)[C@]23CC[C@]1(C)C3` [METHYL THYRSIFLORIN A], the CC100 was determined as 30 µg/mL in the series with Vero, 28 µg/mL in the series with CHO and 28 µg/mL in [6]. The Ratio in the series on Human alphaherpesvirus 2 [1] is on record as 5. The Activity with Human alphaherpesvirus 2 [2] came out at 15 µg/mL.

Regarding `CC1(C)CCC[C@@]2(C)[C@H]1CCC1=CC(=O)[C@@]3(C)C[C@@]12CC3=O`, the CC100 with Vero was 60 µg/mL. In addition, the Ratio in the series on Human alphaherpesvirus 2 [1] came to 10. Further, the Activity in the series on Human alphaherpesvirus 2 [2] was determined as 30 µg/mL.

In the case of `CC1(C)CCC[C@@]2(C)[C@H]1CC[C@H]1CC(=O)[C@]3(C)CC[C@]12C3`, the CC100 is 28 µg/mL in the series with Vero, 24 µg/mL in the series with CHO and 24 µg/mL in [6]. In the series on Human alphaherpesvirus 2 [1], the Ratio was found to be 100. The Activity with Human alphaherpesvirus 2 [2] turned out to be 14 µg/mL. The CC50 in [3] amounted to 16.7 µg/mL (≈ 57.9 µM). The IC50 with Human alphaherpesvirus 2 [4] was found to be 21 µg/mL (≈ 72.9 µM). In series [5], the selectivity ratio was 0.81.

In the case of `CC1(C)CCC[C@@]2(C)[C@H]1C[C@H](O)[C@H]1C[C@@H](O)[C@]3(C)CC[C@]12C3` [THYRSIFLORIN C], the figures for the CC100 (in the series with Vero; in the series on CHO; in series [6]) were 30 µg/mL, 45 µg/mL and 60 µg/mL, respectively. Besides, in the series on Human alphaherpesvirus 2 [1], the Ratio result was “inactive”. Besides, the outcome in the series on Human alphaherpesvirus 2 [2] was inactive.

For `CC(=O)O[C@H]1C[C@H]2C(C)(C)CCC[C@]2(C)[C@@]23CC[C@](C)(C2)[C@@H](O)C[C@H]13`, the CC100 with Vero stood at 50 µg/mL. In the series on Human alphaherpesvirus 2 [1], the Ratio is 10. Besides, the Activity in the series on Human alphaherpesvirus 2 [2] worked out at 25 µg/mL.

In the series with Vero, `CC1(C)CCC[C@@]2(C)[C@H]1CCC1=CC(=O)[C@]3(C)CC[C@]12C3` had a CC100 of 40 µg/mL. In addition, the Ratio with Human alphaherpesvirus 2 [1] was 100. For the same compound, the Activity with Human alphaherpesvirus 2 [2] turned out to be 20 µg/mL. It took 23.2 µg/mL (≈ 81 µM) to reach half-maximal cytotoxicity in series [3] (CC50). The compound further came in with a 50% inhibitory concentration (IC50) with Human alphaherpesvirus 2 [4] of 32.4 µg/mL (≈ 113 µM). Besides, the selectivity ratio in series [5] is 0.72.

Source of the values: ChEMBL document CHEMBL1156361, “Structure-activity relationship of in vitro antiviral and cytotoxic activity of semisynthetic analogues of scopadulane diterpenes” (J Nat Prod, 2001).
